Four molecules from ChEMBL document CHEMBL4396887, “Five-Membered N-Heterocyclic Scaffolds as Novel Amino Bioisosteres at γ-Aminobutyric Acid (GABA) Type A Receptors and GABA Transporters” (J Med Chem, 2019) can be followed below.

The source made the active and inactive calls. No cut-off for these calls is given here.

Series [1] has as its target T1, Gamma-aminobutyric acid receptor subunit rho-1 (Homo sapiens, UniProt P24046). As to the kind of experiment: Agonist activity at recombinant human GABA-A rho-1 receptor transiently expressed in human tsA201 cells incubated for 30 mins and measured up to 90 secs by FMP dye based FLIPR membrane potential blue assay. In kind it is cell-based.
The species entered for series [2] is Homo sapiens. As to the kind of experiment: Agonist activity at recombinant human GABA-A alpha3beta2gamma2S receptor transiently expressed in human tsA201 cells at >= 100 uM incubated for 30 mins and measured up to 90 secs by FMP dye based FLIPR membrane potential blue assay. In kind it is cell-based.
In series [3] the target is T1, Gamma-aminobutyric acid receptor subunit rho-1. As to the kind of experiment: Agonist activity at recombinant human GABA-A rho-1 receptor transiently expressed in human tsA201 cells assessed as GABA-induced maximum response incubated for 30 mins and measured up to 90 secs by FMP dye based FLIPR membrane potential blue assay relative to GABA. It counts as cell-based.

The species entered for series [4] is Homo sapiens. The series is described as follows: Agonist activity at recombinant human GABA-A alpha3beta2gamma2S receptor transiently expressed in human tsA201 cells assessed as GABA-induced maximum response incubated for 30 mins and measured up to 90 secs by FMP dye based FLIPR membrane potential blue assay relative to GABA. In kind it is cell-based.
For series [5], the target named is T1, Gamma-aminobutyric acid receptor subunit rho-1. As to the kind of experiment: Agonist activity at recombinant human GABA-A rho-1 receptor transiently expressed in human tsA201 cells at >= 100 uM incubated for 30 mins and measured up to 90 secs by FMP dye based FLIPR membrane potential blue assay. In kind it is cell-based.
For series [6], the target named is T2, Gamma-aminobutyric acid receptor subunit alpha-4/beta-2/gamma-2 (Homo sapiens, UniProt P47870+P18507+P48169). The series is described as follows: (§1) Agonist activity at recombinant human GABA-A alpha4beta2gamma2S receptor transiently expressed in human tsA201 cells incubated for 30 mins and measured up to 90 secs by FMP dye based FLIPR membrane potential blue assay. In kind it is cell-based.

The target of series [7] is T3, GABA-A receptor; alpha-1/beta-2/gamma-2 (Homo sapiens) (UniProt P14867+P47870+P18507). The series is described as follows: Agonist activity at recombinant human GABA-A alpha1beta2gamma2S receptor transiently expressed in human tsA201 cells assessed as GABA-induced maximum response incubated for 30 mins and measured up to 90 secs by FMP dye based FLIPR membrane potential blue assay relative to GABA. It counts as cell-based.

The target of series [8] is T2, Gamma-aminobutyric acid receptor subunit alpha-4/beta-2/gamma-2. The series is described as follows: Agonist activity at recombinant human GABA-A alpha4beta2gamma2S receptor transiently expressed in human tsA201 cells at >= 100 uM incubated for 30 mins and measured up to 90 secs by FMP dye based FLIPR membrane potential blue assay. In kind it is cell-based.
Series [9] deals with Gamma-aminobutyric acid receptor subunit alpha-5/beta-2/gamma-2 (Homo sapiens) (UniProt P47870+P18507+P31644). The series is described as follows: Agonist activity at recombinant human GABA-A alpha5beta2gamma2S receptor transiently expressed in human tsA201 cells assessed as GABA-induced maximum response incubated for 30 mins and measured up to 90 secs by FMP dye based FLIPR membrane potential blue assay relative to GABA. In kind it is cell-based.

Series [10] has as its target T4, GABA-A receptor; alpha-1/beta-2/gamma-2 (Homo sapiens, UniProt P14867+P47870+P18507).
T4 sequence (P14867 whole entry): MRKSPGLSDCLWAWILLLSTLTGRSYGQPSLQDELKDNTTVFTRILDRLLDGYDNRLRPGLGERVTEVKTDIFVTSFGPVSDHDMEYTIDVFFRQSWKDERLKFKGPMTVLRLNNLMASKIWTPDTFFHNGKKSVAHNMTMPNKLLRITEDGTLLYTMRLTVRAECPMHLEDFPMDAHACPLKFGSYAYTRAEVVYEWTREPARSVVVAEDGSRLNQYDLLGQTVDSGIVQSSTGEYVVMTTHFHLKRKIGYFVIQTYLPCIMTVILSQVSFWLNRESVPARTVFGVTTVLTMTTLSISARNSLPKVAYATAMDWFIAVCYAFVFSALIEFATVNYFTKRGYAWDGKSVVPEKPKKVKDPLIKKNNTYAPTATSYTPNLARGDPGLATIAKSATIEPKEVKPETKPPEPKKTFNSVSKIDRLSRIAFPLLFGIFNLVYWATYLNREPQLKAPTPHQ
T4 sequence (P47870 whole entry): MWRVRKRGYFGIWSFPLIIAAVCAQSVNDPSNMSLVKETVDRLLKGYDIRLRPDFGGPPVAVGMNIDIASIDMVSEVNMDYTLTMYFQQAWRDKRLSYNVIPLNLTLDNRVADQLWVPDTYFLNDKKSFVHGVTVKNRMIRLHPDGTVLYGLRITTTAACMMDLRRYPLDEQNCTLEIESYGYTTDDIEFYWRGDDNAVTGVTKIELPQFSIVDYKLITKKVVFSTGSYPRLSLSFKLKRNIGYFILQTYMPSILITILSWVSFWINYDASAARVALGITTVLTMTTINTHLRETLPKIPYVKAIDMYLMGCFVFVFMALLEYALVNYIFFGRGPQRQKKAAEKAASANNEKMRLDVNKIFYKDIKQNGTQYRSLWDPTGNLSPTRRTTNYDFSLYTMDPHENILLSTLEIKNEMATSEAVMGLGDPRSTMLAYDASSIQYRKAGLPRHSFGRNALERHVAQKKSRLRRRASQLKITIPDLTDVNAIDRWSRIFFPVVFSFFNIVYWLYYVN
T4 sequence (P18507 whole entry): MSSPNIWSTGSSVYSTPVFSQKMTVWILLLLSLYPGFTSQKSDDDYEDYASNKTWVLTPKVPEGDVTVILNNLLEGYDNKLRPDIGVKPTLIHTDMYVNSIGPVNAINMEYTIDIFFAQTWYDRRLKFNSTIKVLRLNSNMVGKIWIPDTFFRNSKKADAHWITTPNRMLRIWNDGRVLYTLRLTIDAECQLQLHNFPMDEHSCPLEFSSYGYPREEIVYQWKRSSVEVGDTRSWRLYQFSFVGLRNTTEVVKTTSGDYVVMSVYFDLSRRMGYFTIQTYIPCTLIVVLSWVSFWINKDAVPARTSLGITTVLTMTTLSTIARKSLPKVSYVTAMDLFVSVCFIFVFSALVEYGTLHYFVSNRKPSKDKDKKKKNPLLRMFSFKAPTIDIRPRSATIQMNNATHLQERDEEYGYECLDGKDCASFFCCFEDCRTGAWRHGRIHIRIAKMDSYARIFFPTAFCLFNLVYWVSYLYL
As to the kind of experiment: (§2) Agonist activity at recombinant human GABA-A alpha1beta2gamma2S receptor transiently expressed in human tsA201 cells incubated for 30 mins and measured up to 90 secs by FMP dye based FLIPR membrane potential blue assay. In kind it is cell-based.

Series [11] addresses T3, GABA-A receptor; alpha-1/beta-2/gamma-2 (Homo sapiens). The series is described as §2. It counts as cell-based.
Series [12] is filed under the species Homo sapiens.
The target in series [13] is GABA-A receptor; anion channel. As to the kind of experiment: Displacement of [3H]muscimol from GABA(A) receptor in Sprague-Dawley rat cortical synaptic membranes by liquid scintillation counting.
Series [14] is described as follows: Ionization constant, pKa2 of the compound at 1 mM by potentiometric titration assay. In kind it is physicochemical.
The target in series [15] is T5, Gamma-aminobutyric acid receptor subunit alpha-5/beta-2/gamma-2 (Homo sapiens, UniProt P18507+P31644+P47870).
T5 sequence (P47870 whole entry): T4 sequence (P47870 whole entry)
T5 sequence (P18507 whole entry): T4 sequence (P18507 whole entry)
T5 sequence (P31644 whole entry): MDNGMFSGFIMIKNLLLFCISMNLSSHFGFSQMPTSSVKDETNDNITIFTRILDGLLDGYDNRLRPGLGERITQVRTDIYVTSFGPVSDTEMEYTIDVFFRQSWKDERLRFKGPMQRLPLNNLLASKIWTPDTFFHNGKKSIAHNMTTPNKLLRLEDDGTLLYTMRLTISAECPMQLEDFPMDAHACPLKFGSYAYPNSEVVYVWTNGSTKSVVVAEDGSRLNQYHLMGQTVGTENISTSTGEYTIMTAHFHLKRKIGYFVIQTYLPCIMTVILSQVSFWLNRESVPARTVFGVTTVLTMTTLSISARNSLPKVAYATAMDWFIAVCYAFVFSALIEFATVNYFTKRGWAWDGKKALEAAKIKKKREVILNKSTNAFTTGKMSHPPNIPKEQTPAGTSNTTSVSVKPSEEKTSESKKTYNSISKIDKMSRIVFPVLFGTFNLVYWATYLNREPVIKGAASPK
The series is described as follows: Agonist activity at recombinant human GABA-A alpha5beta2gamma2S receptor transiently expressed in human tsA201 cells incubated for 30 mins and measured up to 90 secs by FMP dye based FLIPR membrane potential blue assay. It counts as cell-based.

The target of series [16] is T2, Gamma-aminobutyric acid receptor subunit alpha-4/beta-2/gamma-2. As to the kind of experiment: Agonist activity at recombinant human GABA-A alpha4beta2gamma2S receptor transiently expressed in human tsA201 cells assessed as GABA-induced maximum response incubated for 30 mins and measured up to 90 secs by FMP dye based FLIPR membrane potential blue assay relative to GABA. It counts as cell-based.

Series [17] has as its target T3, GABA-A receptor; alpha-1/beta-2/gamma-2 (Homo sapiens). The series is described as follows: Agonist activity at recombinant human GABA-A alpha1beta2gamma2S receptor transiently expressed in human tsA201 cells at >= 100 uM incubated for 30 mins and measured up to 90 secs by FMP dye based FLIPR membrane potential blue assay. In kind it is cell-based.
The target of series [18] is Gamma-aminobutyric acid receptor subunit alpha-4/beta-2/gamma-2 (Homo sapiens, UniProt P18507+P47870+P48169). The series is described as §1. It counts as cell-based. The note with it: read-out: EC50.
Series [19] in a line: cells. In kind it is cell-based. The note with it: Homo sapiens, tsA201, 0.5 h.
Series [20] has as its target T1, Gamma-aminobutyric acid receptor subunit rho-1. The series is described as follows: Agonist activity at recombinant human GABA-A rho-1 receptor transiently expressed in human tsA201 cells at 300 uM incubated for 30 mins and measured up to 90 secs by FMP dye based FLIPR membrane potential blue assay. It counts as cell-based.
Series [21] has the same target. The series is described as follows: Antagonist activity at recombinant human GABA-A rho-1 receptor transiently expressed in human tsA201 cells incubated for 30 mins and measured up to 90 secs by FMP dye based FLIPR membrane potential blue assay. It counts as cell-based.
The target of series [22] is T2, Gamma-aminobutyric acid receptor subunit alpha-4/beta-2/gamma-2. As to the kind of experiment: Agonist activity at recombinant human GABA-A alpha4beta2gamma2S receptor transiently expressed in human tsA201 cells at >= 300 uM incubated for 30 mins and measured up to 90 secs by FMP dye based FLIPR membrane potential blue assay. It counts as cell-based.
In series [23] the target is T6, GABA-A receptor; alpha-1/beta-2/gamma-2 (Homo sapiens, UniProt P14867+P18507+P47870).
T6 sequence (P14867 whole entry): T4 sequence (P14867 whole entry)
T6 sequence (P47870 whole entry): T4 sequence (P47870 whole entry)
T6 sequence (P18507 whole entry): T4 sequence (P18507 whole entry)
The description is as §2. It counts as cell-based.

T1 sequence (P24046 whole entry): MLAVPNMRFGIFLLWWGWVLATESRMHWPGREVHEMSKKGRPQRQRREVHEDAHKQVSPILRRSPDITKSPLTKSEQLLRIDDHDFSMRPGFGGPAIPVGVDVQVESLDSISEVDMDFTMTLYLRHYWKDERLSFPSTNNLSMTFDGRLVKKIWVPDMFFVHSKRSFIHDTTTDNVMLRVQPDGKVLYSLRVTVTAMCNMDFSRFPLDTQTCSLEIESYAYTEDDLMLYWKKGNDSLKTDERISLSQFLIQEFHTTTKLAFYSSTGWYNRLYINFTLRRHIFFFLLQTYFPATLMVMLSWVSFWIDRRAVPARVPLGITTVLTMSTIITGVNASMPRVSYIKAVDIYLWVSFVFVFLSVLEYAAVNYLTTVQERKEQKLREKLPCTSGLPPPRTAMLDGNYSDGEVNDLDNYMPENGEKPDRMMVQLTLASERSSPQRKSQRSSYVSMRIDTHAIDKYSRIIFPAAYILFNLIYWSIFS
Sequence of Gamma-aminobutyric acid receptor subunit alpha-4/beta-2/gamma-2 (Homo sapiens, UniProt P18507+P47870+P48169) (P48169 whole entry, one chain of several): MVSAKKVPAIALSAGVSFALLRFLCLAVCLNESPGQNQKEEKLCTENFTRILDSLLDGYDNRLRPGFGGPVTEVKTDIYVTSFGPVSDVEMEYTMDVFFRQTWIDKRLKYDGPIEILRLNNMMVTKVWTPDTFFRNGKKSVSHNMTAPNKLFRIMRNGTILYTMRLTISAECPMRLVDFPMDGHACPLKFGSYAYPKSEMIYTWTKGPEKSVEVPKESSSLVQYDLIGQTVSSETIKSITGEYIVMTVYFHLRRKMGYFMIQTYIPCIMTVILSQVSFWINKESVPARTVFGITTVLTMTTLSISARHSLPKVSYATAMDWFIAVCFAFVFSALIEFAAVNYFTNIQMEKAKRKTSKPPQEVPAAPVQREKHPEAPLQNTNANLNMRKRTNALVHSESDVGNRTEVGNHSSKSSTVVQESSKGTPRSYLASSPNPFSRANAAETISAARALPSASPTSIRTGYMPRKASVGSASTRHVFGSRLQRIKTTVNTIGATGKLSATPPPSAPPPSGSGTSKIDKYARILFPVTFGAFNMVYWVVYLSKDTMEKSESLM
T2 sequence (P48169 whole entry, one chain of several): as above

Turning to `Nc1nc(CC(=O)O)cs1`, the EC50 entry in [1] is “Not Active”; in [6], “Not Active”; in [10], “Not Active”; in series [15], 24 µM. Also, the pEC50 entry in series [1], in series [6], in series [11] and in series [12] was “inactive” in each case. For the same molecule, the result in series [2], in [5], in [8] and in series [17] was Active. Moreover, the Rmax result in [3], in series [4], in [7] and in series [16] was “inactive” throughout. Also, in [9], the Rmax was 85%. Moreover, the inhibition constant (Ki) (commonly a dissociation constant, usually derived from enzyme kinetics or from competition with a known ligand) in [13] stood at 32 µM. The pKa – broadly, the pH at which an ionisable group is half protonated – at 1000 µM in series [14] came out at 6.08.

Take `O=C(O)Cc1c[nH]cn1` [IMIDAZOLE ACETIC ACID]: the EC50 was 4.6 µM in [1] (read-out: EC50); 19 µM in series [18]; 8.1 µM in series [19] (read-out: EC50); 8.13 µM in series [19] (read-out: pEC50 (converted)); 1.8 µM in series [15]. Also, the Rmax was found to be 46% in [3]; 89% in series [4]; 46% in [7]; 92% in series [9]; 81% in series [16]. The result in [5] was Active. In series [14], this molecule came in with a pKa at 1000 µM of 7.13.

In the case of `CC1(CC(=O)O)CSC(N)=N1` (centres undefined), the Rmax in series [4] was 80%; in [9] it was 92%. In addition, the EC50 result in series [6] was “Not Active”; in series [19] (read-out: EC50) it was 26 µM; in [19] (read-out: pEC50 (converted)), 25.7 µM; in series [10] it was “Not Active”; in [15], 4.5 µM. The pEC50 result in series [6] and in [11] was “inactive” in each case. Also, the Rmax result in series [7] and in [16] was “inactive” throughout. Further, the outcome in [20] was inactive. Besides, in series [21], the IC50 (commonly the concentration needed to halve the response being measured) is 300 µM. The same molecule returned a Ki in series [13] of 2.2 µM. The outcome in series [22] and in series [17] was Active.

For `NC1=N[C@@H](CC(=O)O)CS1`, the EC50 was 3.7 µM in series [1] (read-out: EC50); 8.6 µM in [18]; 2.4 µM in series [19] (read-out: EC50); 2.34 µM in series [19] (read-out: pEC50 (converted)); 12 µM in [23]; 0.56 µM in series [15]. Moreover, the Rmax came to 34% in series [3]; 102% in series [4]; 65% in [7]; 103% in series [9]; 53% in series [16]. Further, the Ki in [13] was 0.36 µM.
